# Results: publication PMC10175918 (Communications Biology, 2023)
# Where two headings read alike, the source gives them in different places.
# Key:
# Experiment in all cases: TGFα-shedding assay-based GPCR screening with chimeric Gα subunit proteins
# Type in all cases: cell-based
# [1] = target: 348 GPCRs (Homo sapiens, UniProt P61073)
# [2] = target: T1, 348 GPCRs (Homo sapiens, UniProt P32245)
# T1 construct: expressed in transfected cells; host or cells: HEK293A
# [3] = target: T2, 348 GPCRs (Homo sapiens, UniProt P25090); conditions: 10µM, Favipiravir 100μM
# T2 sequence (P25090 1-351): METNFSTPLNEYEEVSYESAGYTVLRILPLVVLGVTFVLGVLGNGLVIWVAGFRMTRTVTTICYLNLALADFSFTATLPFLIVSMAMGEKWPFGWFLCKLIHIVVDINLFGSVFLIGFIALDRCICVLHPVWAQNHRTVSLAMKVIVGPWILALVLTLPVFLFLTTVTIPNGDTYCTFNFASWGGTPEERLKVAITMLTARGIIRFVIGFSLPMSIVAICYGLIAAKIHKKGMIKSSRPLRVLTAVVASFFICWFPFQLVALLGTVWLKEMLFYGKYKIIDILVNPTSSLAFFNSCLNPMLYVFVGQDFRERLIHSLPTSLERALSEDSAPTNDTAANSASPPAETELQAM
# [4] = target: T3, 348 GPCRs (Homo sapiens, UniProt Q8NFN8); conditions: 10µM, Favipiravir 100μM
# T3 construct: expressed in transfected cells; host or cells: HEK293A
# T3 sequence (Q8NFN8 1-814): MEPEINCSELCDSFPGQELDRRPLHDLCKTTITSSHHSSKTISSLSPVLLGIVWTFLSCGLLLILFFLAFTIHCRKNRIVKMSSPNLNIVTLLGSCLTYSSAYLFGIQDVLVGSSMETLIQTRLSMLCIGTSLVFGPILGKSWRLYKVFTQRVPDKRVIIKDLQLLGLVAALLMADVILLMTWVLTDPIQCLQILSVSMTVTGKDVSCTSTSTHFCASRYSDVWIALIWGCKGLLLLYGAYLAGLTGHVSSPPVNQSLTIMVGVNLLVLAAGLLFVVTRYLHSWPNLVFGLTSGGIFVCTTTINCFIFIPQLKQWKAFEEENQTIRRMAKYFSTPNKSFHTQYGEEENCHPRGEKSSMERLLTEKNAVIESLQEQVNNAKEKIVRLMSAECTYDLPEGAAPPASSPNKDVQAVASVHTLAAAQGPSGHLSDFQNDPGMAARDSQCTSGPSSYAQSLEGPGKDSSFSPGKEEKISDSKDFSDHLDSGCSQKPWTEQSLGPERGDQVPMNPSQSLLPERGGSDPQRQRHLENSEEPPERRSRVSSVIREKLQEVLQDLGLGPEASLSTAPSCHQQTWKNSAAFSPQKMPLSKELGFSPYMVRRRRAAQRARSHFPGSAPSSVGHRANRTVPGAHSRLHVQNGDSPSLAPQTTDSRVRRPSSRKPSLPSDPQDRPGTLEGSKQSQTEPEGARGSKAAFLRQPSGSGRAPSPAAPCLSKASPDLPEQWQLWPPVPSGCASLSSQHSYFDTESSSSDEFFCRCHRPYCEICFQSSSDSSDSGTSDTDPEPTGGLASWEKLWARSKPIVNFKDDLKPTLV
# [5] = target: T4, 348 GPCRs (Homo sapiens, UniProt Q8NDV2); conditions: 10µM, Favipiravir 100μM
# T4 construct: expressed in transfected cells; host or cells: HEK293A
# [6] = target: T5, 348 GPCRs (Homo sapiens, UniProt P32249); conditions: EBI2 (G protein-coupled receptor 183 (Epstein-Barr Virus Induced Gene 2)); 10µM, Favipiravir 100μM
# T5 construct: expressed in transfected cells; host or cells: HEK293A
# [7] = target: T6, 348 GPCRs (Homo sapiens, UniProt P48039); conditions: 10µM, Favipiravir 100μM
# T6 construct: expressed in transfected cells; host or cells: HEK293A
# [8] = target: T7, 348 GPCRs (Homo sapiens, UniProt Q01718)
# T7 construct: expressed in transfected cells; host or cells: HEK293A
# [9] = target: T8, 348 GPCRs (Homo sapiens, UniProt Q969N4); conditions: 10µM, Favipiravir 100μM
# T8 construct: expressed in transfected cells; host or cells: HEK293A
# T8 sequence (Q969N4 1-342): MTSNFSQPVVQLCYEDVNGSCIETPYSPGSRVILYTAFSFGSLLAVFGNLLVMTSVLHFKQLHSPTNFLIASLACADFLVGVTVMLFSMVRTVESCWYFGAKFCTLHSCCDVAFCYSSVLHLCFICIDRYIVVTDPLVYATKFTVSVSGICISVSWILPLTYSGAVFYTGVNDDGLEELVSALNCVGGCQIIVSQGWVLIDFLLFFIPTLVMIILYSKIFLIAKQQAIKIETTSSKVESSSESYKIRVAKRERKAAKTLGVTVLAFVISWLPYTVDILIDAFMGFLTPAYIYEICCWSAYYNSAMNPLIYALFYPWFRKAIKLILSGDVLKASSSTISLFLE
# [10] = GPCR CXCR4 (chemokine (C-X-C motif) receptor 4), read-out: % GPCR activation compared to TPA
# [11] = GPCR MC4R (melanocortin 4 receptor), read-out: % GPCR activation compared to TPA
# [12] = FPR2 (formyl peptide receptor 2), read-out: % GPCR activation compared to TPA
# [13] = GPR156 (G protein-coupled receptor 156), read-out: % GPCR activation compared to TPA
# [14] = GPR26 (G Protein-Coupled Receptor 26), read-out: % GPCR activation compared to TPA
# [15] = MT1R (melatonin receptor type 1A), read-out: % GPCR activation compared to TPA
# [16] = GPCR MC2R (melanocortin 2 receptor), read-out: % GPCR activation compared to TPA
# [17] = TAAR8 (trace amine associated receptor 8), read-out: % GPCR activation compared to TPA
# [18] = read-out: % GPCR activation compared to TPA, GPCR CXCR4 (chemokine (C-X-C motif) receptor 4)
# [19] = read-out: % GPCR activation compared to TPA, GPCR MC4R (melanocortin 4 receptor)
# [20] = read-out: % GPCR activation compared to TPA, FPR2 (formyl peptide receptor 2)
# [21] = read-out: % GPCR activation compared to TPA, GPR156 (G protein-coupled receptor 156)
# [22] = read-out: % GPCR activation compared to TPA, GPR26 (G Protein-Coupled Receptor 26)
# [23] = read-out: % GPCR activation compared to TPA, MT1R (melatonin receptor type 1A)
# [24] = read-out: % GPCR activation compared to TPA, GPCR MC2R (melanocortin 2 receptor)
# [25] = read-out: % GPCR activation compared to TPA, TAAR8 (trace amine associated receptor 8)
# T7 sequence (Q01718 whole entry): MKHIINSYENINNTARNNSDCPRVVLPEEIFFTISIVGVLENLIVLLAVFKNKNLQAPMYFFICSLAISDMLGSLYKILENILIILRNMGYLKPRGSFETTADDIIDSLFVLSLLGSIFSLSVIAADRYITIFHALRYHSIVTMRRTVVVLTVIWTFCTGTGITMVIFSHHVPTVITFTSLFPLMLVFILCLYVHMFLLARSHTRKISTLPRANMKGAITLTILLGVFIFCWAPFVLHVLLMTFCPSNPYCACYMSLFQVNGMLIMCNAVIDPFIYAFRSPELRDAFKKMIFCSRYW
# Chain of 348 GPCRs (Homo sapiens, UniProt P61073) (P61073 whole entry): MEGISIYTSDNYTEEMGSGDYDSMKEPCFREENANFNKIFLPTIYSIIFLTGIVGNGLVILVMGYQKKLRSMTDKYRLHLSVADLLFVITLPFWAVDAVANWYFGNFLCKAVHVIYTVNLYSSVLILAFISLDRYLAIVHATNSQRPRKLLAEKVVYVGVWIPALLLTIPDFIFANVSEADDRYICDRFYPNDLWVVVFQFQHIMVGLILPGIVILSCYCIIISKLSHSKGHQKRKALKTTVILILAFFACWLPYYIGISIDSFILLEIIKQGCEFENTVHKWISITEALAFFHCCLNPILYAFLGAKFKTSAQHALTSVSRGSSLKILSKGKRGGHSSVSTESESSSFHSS
# T5 sequence (P32249 whole entry): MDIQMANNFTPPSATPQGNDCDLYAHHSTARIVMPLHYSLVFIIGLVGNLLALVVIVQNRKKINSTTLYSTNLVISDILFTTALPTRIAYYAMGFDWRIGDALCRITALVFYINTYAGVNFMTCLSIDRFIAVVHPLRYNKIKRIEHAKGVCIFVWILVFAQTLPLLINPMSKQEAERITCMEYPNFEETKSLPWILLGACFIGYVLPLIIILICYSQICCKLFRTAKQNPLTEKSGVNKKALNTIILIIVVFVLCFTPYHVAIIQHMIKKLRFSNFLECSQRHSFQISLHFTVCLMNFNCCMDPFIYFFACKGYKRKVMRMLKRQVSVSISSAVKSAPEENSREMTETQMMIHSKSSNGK
# T1 sequence (P32245 whole entry): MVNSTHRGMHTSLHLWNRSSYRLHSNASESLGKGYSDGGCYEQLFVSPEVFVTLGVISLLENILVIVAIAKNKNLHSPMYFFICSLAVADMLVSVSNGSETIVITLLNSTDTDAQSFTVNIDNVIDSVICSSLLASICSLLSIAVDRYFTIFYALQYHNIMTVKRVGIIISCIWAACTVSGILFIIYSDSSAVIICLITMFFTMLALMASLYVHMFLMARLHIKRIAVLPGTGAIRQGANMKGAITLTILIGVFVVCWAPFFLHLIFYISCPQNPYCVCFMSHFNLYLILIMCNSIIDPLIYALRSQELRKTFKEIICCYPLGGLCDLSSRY
# T4 sequence (Q8NDV2 whole entry): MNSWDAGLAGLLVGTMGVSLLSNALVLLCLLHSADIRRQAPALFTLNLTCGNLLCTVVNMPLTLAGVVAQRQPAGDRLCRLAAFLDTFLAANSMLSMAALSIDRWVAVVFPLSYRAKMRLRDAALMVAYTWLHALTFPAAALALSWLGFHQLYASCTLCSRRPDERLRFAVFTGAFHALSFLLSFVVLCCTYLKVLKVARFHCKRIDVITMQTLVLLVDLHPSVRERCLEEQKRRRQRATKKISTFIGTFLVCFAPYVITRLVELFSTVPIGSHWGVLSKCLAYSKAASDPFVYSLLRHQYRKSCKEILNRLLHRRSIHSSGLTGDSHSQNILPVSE
# T6 sequence (P48039 whole entry): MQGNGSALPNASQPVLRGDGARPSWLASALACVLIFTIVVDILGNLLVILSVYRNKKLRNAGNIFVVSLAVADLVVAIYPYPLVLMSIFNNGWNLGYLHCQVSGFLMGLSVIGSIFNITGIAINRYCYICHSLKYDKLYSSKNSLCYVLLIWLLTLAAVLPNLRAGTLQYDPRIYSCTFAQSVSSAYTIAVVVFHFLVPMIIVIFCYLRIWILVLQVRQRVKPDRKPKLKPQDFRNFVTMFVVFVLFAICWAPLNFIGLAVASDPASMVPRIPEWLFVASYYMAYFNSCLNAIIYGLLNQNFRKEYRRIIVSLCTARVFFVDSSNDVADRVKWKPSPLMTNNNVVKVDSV
Compound,"activation at 10 µM [1, 10] [%]","activation at 10 µM [2, 11] [%]","activation at 100 µM [3, 12] [%]","activation at 10 µM [4, 13] [%]","activation at 100 µM [5, 14] [%]",% GPCR activation compared to TPA [6] [%],"activation at 10 µM [7, 15] [%]","activation at 10 µM [8, 16] [%]","activation at 100 µM [9, 17] [%]","activation at 10 µM [1, 18] [%]","activation at 10 µM [2, 19] [%]","activation at 100 µM [3, 20] [%]","activation at 10 µM [4, 21] [%]","activation at 100 µM [5, 22] [%]","activation at 10 µM [7, 23] [%]","activation at 10 µM [8, 24] [%]","activation at 100 µM [9, 25] [%]","activation at 100 µM ([1]; GPCR CXCR4 (chemokine (C-X-C motif) receptor 4), 100μM, read-out: % GPCR activation compared to TPA) [%]","activation at 100 µM ([2]; GPCR MC4R (melanocortin 4 receptor), 100μM, read-out: % GPCR activation compared to TPA) [%]","activation at 100 µM ([8]; GPCR MC2R (melanocortin 2 receptor), 100μM, read-out: % GPCR activation compared to TPA) [%]"
N#C[C@@]1(c2ccc3c(N)ncnn23)O[C@H](CO)[C@@H](O)[C@H]1O [GS441524],-0.228,2.19,-0.97,1.38,-0.116,-1.471,0.391,-0.688,-1.62,–,–,–,–,–,–,–,–,–,–,–
CC(C)OC(=O)[C@H](C)N[P@](=O)(OC[C@H]1O[C@@H](n2ccc(=O)[nH]c2=O)[C@](C)(F)[C@@H]1O)Oc1ccccc1 [sofosbuvir],–,–,–,–,–,-0.7581,–,–,–,1.3,-2.6,-1.57,-4.51,0.171,-4.49,-3.14,-2.21,–,–,–
CCC(CC)COC(=O)[C@H](C)N[P@](=O)(OC[C@H]1O[C@@](C#N)(c2ccc3c(N)ncnn23)[C@H](O)[C@@H]1O)Oc1ccccc1 [remdesivir],–,–,–,–,–,0.4815,–,–,–,1.64,3.44,-0.745,4.05,0.188,0.542,-1.06,0.465,–,–,–
CC(C)C(=O)OC[C@H]1O[C@@H](n2ccc(NO)nc2=O)[C@H](O)[C@@H]1O [molnupiravir],-1.55,-1.93,-1.5,-4.86,-0.581,-0.8417,-4.07,-0.524,-0.135,–,–,–,–,–,–,–,–,–,–,–
"NC(=O)c1nc(F)cnc1O [favipiravir, 6-fluoro-3-hydroxy-2-pyrazinecarboxamide]",–,–,-3.31,2.77,-0.29,-1.156,-1.27,–,0.473,–,–,–,–,–,–,–,–,-0.773,2.24,-0.849
